pIC50: −log10 of the molar value.

The target in the experiment is T1, recombinant human SYK360-635 (Homo sapiens, UniProt P43405).
T1 construct: made in house
The experiment in a line: Determination of IC50 of Spleen Tyrosine Kinase (SYK) inhibition, 33P ATP filtration assay. Format: biochemical. The following applies: SYK aa 360-635 0.5 nM; ATP 20 μM, peptide 5 μM, 0.1% BSA; read-out: SYK_ENZYME_FILTRATION/v1, BSA.
Description: All concentrations were final in the reaction mixture and all incubations were carried at room temperature. […] SYK Assay Information Determination of IC50 of Spleen Tyrosine Kinase (SYK) Inhibition:
SYK kinase assay is a standard kinase assay adapted to a 96 well plate format. This assay is performed in 96-well format for IC50 determination with 8 samples which represented 10 half log dilutions and a 40 μL reaction volume. The assay measures the incorporation of radiolabeled ^33P γATP into an N-terminally biotinylated peptide substrate, derived from naturally occurring phosphoacceptor consensus sequence (Biotin-11aa DY*E). […] Experimental Method:
DMSO and the mixture was incubated for 10 min at RT.
The kinase reaction was initiated by the addition of 10 μL 4× substrate cocktail containing the DYE peptide substrate [0 or 5 μM], ATP [20 μM] and ^33PγATP [2 μCi/r×n]. After incubation at 30° C. for 15 min, the reaction was terminated by the transfer of 25 μL pf the reaction sample to a 96 well 0.65 μm Millipore MADVNOB membrane/plate containing 200 μL 5 mM EDTA and 20% Streptavidine coated beads in PBS.
The unbound radionucleotides were washed under vacuum with 3×250 μL 2M NaCl; 2×250 μL 2M NaCl+1% phosphoric acid; 1×250 μL H2O. After the last wash membrane/plates were transferred to an adaptor plate, heat dried for 15 min at 60° C., and 50 μL scintillation cocktail was added to each well and 4 h later the amount of radioactivity was counted in a top counter.
On to `Cn1nc(-c2cnc3[nH]cc(C(=O)NC4(C)CCCC4)c3n2)c2ccc(F)cc21` [Example I-384, 2-(6-Fluoro-1-methyl-1H-indazol-3-yl)-5H-pyrrolo[2,3-b]pyrazine-7-carboxylic acid (1-methyl-cyclopentyl)-amide], for which the pIC50 is 8.43. The figure for `Cn1nc(-c2cnc3[nH]cc(C(=O)NC4(C)COC4)c3n2)c2ccc(F)cc21` [Example I-386, 2-(6-Fluoro-1-methyl-1H-indazol-3-yl)-5H-pyrrolo[2,3-b]pyrazine-7-carboxylic acid (3-methyl-oxetan-3-yl)-amide] is 6.98; for `Cn1nc(-c2cnc3[nH]cc(C(=O)NC4(C#N)CC4)c3n2)c2ccc(F)cc21` [Example I-387, 2-(6-Fluoro-1-methyl-1H-indazol-3-yl)-5H-pyrrolo[2,3-b]pyrazine-7-carboxylic acid (1-cyano-cyclopropyl)-amide] it is 7.50; for `Cn1nc(-c2cnc3[nH]cc(C(=O)NC(C)(C)c4ccccc4)c3n2)c2ccc(Cl)cc21` [Example I-388, 2-(6-Chloro-1-methyl-1H-indazol-3-yl)-5H-pyrrolo[2,3-b]pyrazine-7-carboxylic acid (1-methyl-1-phenyl-ethyl)-amide] it is 7.20. The result for `C[C@H](NC(=O)c1c[nH]c2ncc(-c3nn(C)c4cc(Cl)ccc34)nc12)c1ccccc1` [Example I-389, 2-(6-Chloro-1-methyl-1H-indazol-3-yl)-5H-pyrrolo[2,3-b]pyrazine-7 carboxylic acid ((S)-1-phenyl-ethyl)-amide] reads 6.74; that for `Cn1nc(-c2cnc3[nH]cc(C(=O)NC(C)(C)C(F)(F)F)c3n2)c2ccc(Cl)cc21` [Example I-390, 2-(6-Chloro-1-methyl-1H-indazol-3-yl)-5H-pyrrolo[2,3-b]pyrazine-7-carboxylic acid (2,2,2-trifluoro-1,1-dimethyl-ethyl)-amide], 7.37; that for `CCC(C)(C)NC(=O)c1c[nH]c2ncc(-c3nn(C)c4cc(Cl)ccc34)nc12` [Example I-391, 2-(6-Chloro-1-methyl-1H-indazol-3-yl)-5H-pyrrolo[2,3-b]pyrazine-7-carboxylic acid (1,1-dimethyl-propyl)-amide], 8.06. The result for `Cn1nc(-c2cnc3[nH]cc(C(=O)NC4(C)CCCCC4)c3n2)c2ccc(F)cc21` [Example I-392, 2-(6-Fluoro-1-methyl-1H-indazol-3-yl)-5H-pyrrolo[2,3-b]pyrazine-7-carboxylic acid (1-methyl-cyclohexyl)-amide] reads 7.99; that for `Cn1nc(-c2cnc3[nH]cc(C(=O)NC(C)(C)C(C)(C)N)c3n2)c2ccc(F)cc21` [Example I-393, 2-(6-Fluoro-1-methyl-1H-indazol-3-yl]-5H-pyrrolo[2,3-b]pyrazine-7-carboxylic acid (2-amino-1,1,2-trimethyl-propyl)-amide], 6.31; that for `Cn1nc(-c2cnc3[nH]cc(C(=O)NC(C)(C)C)c3n2)c2ccc(C#N)cc21` [Example I-394, 2-(6-Cyano-1-methyl-1H-indazol-3-yl)-5H-pyrrolo[2,3-b]pyrazine-7-carboxylic acid tert-butylamide], 8.36. Consider `Cn1nc(-c2cnc3[nH]cc(C(=O)NC4(C)CC4)c3n2)c2ccc(Cl)cc21` [Example I-395, 2-(6-Chloro-1-methyl-1H-indazol-3-yl)-5H-pyrrolo[2,3-b]pyrazine-7-carboxylic acid (1-methyl-cyclopropyl)-amide], for which the pIC50 is 8.64. `Cn1nc(-c2cnc3[nH]cc(C(=O)Nc4ccccc4)c3n2)c2ccc(Cl)cc21` [Example I-396, 2-(6-Chloro-1-methyl-1H-indazol-3-yl)-5H-pyrrolo[2,3-b]pyrazine-7-carboxylic acid phenylamide]: the pIC50 is < 5.00.

As to `Cn1nc(-c2cnc3[nH]cc(C(=O)NC(C)(C)CN)c3n2)c2ccc(Cl)cc21` [Example I-397, 2-(6-Chloro-1-methyl-1H-indazol-3-yl)-5H-pyrrolo[2,3-b]pyrazine-7-carboxylic acid (2-amino-1,1-dimethyl-ethyl)-amide], the pIC50 was 6.66. In the case of `Cn1nc(-c2cnc3[nH]cc(C(=O)NC(C)(C)CO)c3n2)c2ccc(C#N)cc21` [Example I-398, 2-(6-Cyano-1-methyl-1H-indazol-3-yl)-5H-pyrrolo[2,3-b]pyrazine-7-carboxylic acid (2-hydroxy-1,1-dimethyl-ethyl)-amide], the pIC50 was 7.91. Consider `Cn1nc(-c2cnc3[nH]cc(C(=O)NC(C)(C)CCO)c3n2)c2ccc(F)cc21` [Example I-400, 2-(6-Fluoro-1-methyl-1H-indazol-3-yl)-5H-pyrrolo[2,3-b]pyrazine-7-carboxylic acid (3-hydroxy-1,1-dimethyl-propyl)-amide], for which the pIC50 was 8.07. For `Cn1nc(-c2cnc3[nH]cc(C(=O)NC(C)(C)C4CC4)c3n2)c2ccc(Cl)cc21` [Example I-401, 2-(6-Chloro-1-methyl-1H-indazol-3-yl)-5H-pyrrolo[2,3-b]pyrazine-7-carboxylic acid (1-cyclopropyl-1-methyl-ethyl)-amide], the pIC50 was 7.73. In the case of `Cn1nc(-c2cnc3[nH]cc(C(=O)N[C@H]4CC[C@@H](N)CC4)c3n2)c2cc(OC(F)F)ccc21` [Example I-402, 2-(5-Difluoromethoxy-1-methyl-1H-indazol-3-yl)-5H-pyrrolo[2,3-b]pyrazine-7-carboxylic acid (cis-4-amino-cyclohexyl)-amide], the pIC50 is 6.99. The result for `Cn1nc(-c2cnc3[nH]cc(C(=O)NC4CCCC(N)C4)c3n2)c2ccc(Cl)cc21` (centres unmarked) [Example I-403, 2-(6-Chloro-1-methyl-1H-indazol-3-yl)-5H-pyrrolo[2,3-b]pyrazine-7-carboxylic acid (3-amino-cyclohexyl)-amide] reads 7.86; that for `Cn1nc(-c2cnc3[nH]cc(C(=O)Nc4cccc(C#N)c4)c3n2)c2ccc(Cl)cc21` [Example I-404, 2-(6-Chloro-1-methyl-1H-indazol-3-yl)-5H-pyrrolo[2,3-b]pyrazine-7-carboxylic acid (3-cyano-phenyl)-amide], < 5.00; that for `Cn1nc(-c2cnc3[nH]cc(C(=O)Nc4cccnc4)c3n2)c2ccc(Cl)cc21` [Example I-405, 2-(6-Chloro-1-methyl-1H-indazol-3-yl)-5H-pyrrolo[2,3-b]pyrazine-7-carboxylic acid pyridin-3-ylamide], 6.73. The figure for `Cn1nc(-c2cnc3[nH]cc(C(=O)NC4(C)CCNC4)c3n2)c2ccc(F)cc21` (centres unmarked) [Example I-406, 2-(6-Fluoro-1-methyl-1H-indazol-3-yl)-5H-pyrrolo[2,3-b]pyrazine-7-carboxylic acid (3-methyl-pyrrolidin-3-yl)-amide] is 7.06; for `Cn1nc(-c2cnc3[nH]cc(C(=O)NC(C)(C)C#N)c3n2)c2ccc(Cl)cc21` [Example I-407, 2-(6-Chloro-1-methyl-1H-indazol-3-yl)-5H-pyrrolo[2,3-b]pyrazine-7-carboxylic acid (cyano-dimethyl-methyl)-amide] it is 8.24.

As for `Cn1nc(-c2cnc3[nH]cc(C(=O)NC(C)(C)CCCN)c3n2)c2ccc(F)cc21` [Example I-408, 2-(6-Fluoro-1-methyl-1H-indazol-3-yl)-5H-pyrrolo[2,3-b]pyrazine-7-carboxylic acid (4-amino-1,1-dimethyl-butyl)-amide], the pIC50 is 7.28. For the compound `Cn1nc(-c2cnc3[nH]cc(C(=O)NC4(C)CNC4)c3n2)c2ccc(F)cc21` [Example I-409, 2-(6-Fluoro-1-methyl-1H-indazol-3-yl)-5H-pyrrolo[2,3-b]pyrazine-7-carboxylic acid (3-methyl-azetidin-3-yl)-amide], the pIC50 is 6.50.

On to `Cn1nc(-c2cnc3[nH]cc(C(=O)NC(C)(C)C)c3n2)c2ccccc21` [Example I-410, 2-(1-Methyl-1H-indazol-3-yl)-5H-pyrrolo[2,3-b]pyrazine-7-carboxylic acid tert-butylamide], for which the pIC50 was 8.33. As to `CC(C)(C)NC(=O)c1c[nH]c2ncc(-c3n[nH]c4cc(F)ccc34)nc12` [Example I-411, 2-(6-Fluoro-1H-indazol-3-yl)-5H-pyrrolo[2,3-b]pyrazine-7-carboxylic acid tert-butylamide], the pIC50 is 7.02.

Take `Cn1nc(-c2cnc3[nH]cc(C(=O)NC(C)(C)C)c3n2)c2cc(C(F)(F)F)ccc21` [Example I-412, 2-(1-Methyl-5-trifluoromethyl-1H-indazol-3-yl)-5H-pyrrolo[2,3-b]pyrazine-7-carboxylic acid tert-butylamide]: the pIC50 was 7.13.

On to `CC(O)C(C)(C)NC(=O)c1c[nH]c2ncc(-c3nn(C)c4cc(Cl)ccc34)nc12` (centres unmarked) [Example I-413, 2-(6-Chloro-1-methyl-1H-indazol-3-yl)-5H-pyrrolo[2,3-b]pyrazine-7-carboxylic acid (2-hydroxy-1,1-dimethyl-propyl)-amide], for which the pIC50 is 7.46. The result for `CC(C)(CO)NC(=O)c1c[nH]c2ncc(-c3n[nH]c4cc(Cl)ccc34)nc12` [Example I-414, 2-(6-Chloro-1H-indazol-3-yl)-5H-pyrrolo[2,3-b]pyrazine-7-carboxylic acid (2-hydroxy-1,1-dimethyl-ethyl)-amide] reads 8.28; that for `Cn1nc(-c2cnc3[nH]cc(C(=O)NC(C)(C)CCN)c3n2)c2ccc(F)cc21` [Example I-415, 2-(6-Fluoro-1-methyl-1H-indazol-3-yl)-5H-pyrrolo[2,3-b]pyrazine-7-carboxylic acid (3-amino-1,1-dimethyl-propyl)-amide], 6.49. The result for `Cn1nc(-c2cnc3[nH]cc(C(=O)N[C@]4(C)CC[C@@H](N)CC4)c3n2)c2ccc(F)cc21` [Example I-416, 2-(6-Fluoro-1-methyl-1H-indazol-3-yl)-5H-pyrrolo[2,3-b]pyrazine-7-carboxylic acid (trans-4-amino-1-methyl-cyclohexyl)-amide] reads 8.71.

On to `Cn1nc(-c2cnc3[nH]cc(C(=O)N[C@]4(C)CC[C@H](N)CC4)c3n2)c2ccc(F)cc21` [Example I-417, 2-(6-Fluoro-1-methyl-1H-indazol-3-yl)-5H-pyrrolo[2,3-b]pyrazine-7-carboxylic acid (cis-4-amino-1-methyl-cyclohexyl)-amide], for which the pIC50 was 6.10.
